Measurements taken from PubChem BioAssay (NCI).
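48-hour exposure; five concentrations; linearly interpolated endpoints. TGI is the concentration that stops growth completely.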

Experiments:
Test in all cases: DTP human tumour cell line panel, 48 h
786-0 renal = system: 786-0 renal
A549 NSCLC = system: A549 NSCLC
ACHN renal = system: ACHN renal
CAKI-1 renal = system: CAKI-1 renal
CCRF-CEM leukemia = system: CCRF-CEM leukemia
COLO 205 colon = system: COLO 205 colon
DLD-1 colon = system: DLD-1 colon
DMS 114 small cell lung = system: DMS 114 small cell lung
EKVX NSCLC = system: EKVX NSCLC
HCC-2998 colon = system: HCC-2998 colon
HCT-116 colon = system: HCT-116 colon
HL-60(TB) leukemia = system: HL-60(TB) leukemia
HOP-62 NSCLC = system: HOP-62 NSCLC
HT29 colon = system: HT29 colon
IGROV1 ovarian = system: IGROV1 ovarian
K-562 leukemia = system: K-562 leukemia
KM12 colon = system: KM12 colon
KM20L2 colon = system: KM20L2 colon
LOX IMVI melanoma = system: LOX IMVI melanoma
LXFL 529 NSCLC = system: LXFL 529 NSCLC
M14 melanoma = system: M14 melanoma
M19-MEL melanoma = system: M19-MEL melanoma
MALME-3M melanoma = system: MALME-3M melanoma
MOLT-4 leukemia = system: MOLT-4 leukemia
NCI-H226 lung = system: NCI-H226 lung
NCI-H23 lung = system: NCI-H23 lung
NCI-H460 lung = system: NCI-H460 lung
NCI-H522 lung = system: NCI-H522 lung
OVCAR-3 ovarian = system: OVCAR-3 ovarian
OVCAR-4 ovarian = system: OVCAR-4 ovarian
OVCAR-5 ovarian = system: OVCAR-5 ovarian
OVCAR-8 ovarian = system: OVCAR-8 ovarian
RPMI-8226 leukemia = system: RPMI-8226 leukemia
RXF 393 renal = system: RXF 393 renal
SF-268 CNS = system: SF-268 CNS
SF-295 CNS = system: SF-295 CNS
SF-539 CNS = system: SF-539 CNS
SK-MEL-2 melanoma = system: SK-MEL-2 melanoma
SK-MEL-28 melanoma = system: SK-MEL-28 melanoma
SK-MEL-5 melanoma = system: SK-MEL-5 melanoma
SK-OV-3 ovarian = system: SK-OV-3 ovarian
SN12C renal = system: SN12C renal
SNB-19 CNS = system: SNB-19 CNS
SNB-78 CNS = system: SNB-78 CNS
SR leukemia = system: SR leukemia
SW-620 colon = system: SW-620 colon
U251 CNS = system: U251 CNS
UACC-257 melanoma = system: UACC-257 melanoma
UACC-62 melanoma = system: UACC-62 melanoma
UO-31 renal = system: UO-31 renal
A498 renal = system: A498 renal
BT-549 breast = system: BT-549 breast
DU-145 prostate = system: DU-145 prostate
HCT-15 colon = system: HCT-15 colon
HOP-92 NSCLC = system: HOP-92 NSCLC
HS 578T breast = system: HS 578T breast
MCF7 breast = system: MCF7 breast
MDA-MB-231 breast = system: MDA-MB-231 breast
MDA-MB-435 = system: MDA-MB-435
MDA-N = system: MDA-N
NCI/ADR-RES ovarian = system: NCI/ADR-RES ovarian
PC-3 prostate = system: PC-3 prostate
SNB-75 CNS = system: SNB-75 CNS
T-47D breast = system: T-47D breast
TK-10 renal = system: TK-10 renal

`CO[C@H](C(=O)O[C@H]1C(=O)N2CC[C@@H]3CCC[C@H]1C32C)c1ccccc1` (some centres undefined) was tested, and the TGI (786-0 renal) was greater than 100 µM, the TGI (A549 NSCLC) was greater than 100 µM and the TGI (ACHN renal) was greater than 100 µM. It also gave a TGI (CAKI-1 renal) greater than 100 µM, a TGI (CCRF-CEM leukemia) greater than 100 µM and a TGI (COLO 205 colon) greater than 100 µM. The TGI (DLD-1 colon) was greater than 100 µM, the TGI (DMS 114 small cell lung) was greater than 100 µM and the TGI (EKVX NSCLC) was greater than 100 µM. The TGI (HCC-2998 colon) was greater than 100 µM, the TGI (HCT-116 colon) was greater than 100 µM and the TGI (HL-60(TB) leukemia) was greater than 100 µM. The TGI (HOP-62 NSCLC) was greater than 100 µM, the TGI (HT29 colon) was greater than 100 µM and the TGI (IGROV1 ovarian) was greater than 100 µM. It also gave a TGI (K-562 leukemia) greater than 100 µM, a TGI (KM12 colon) greater than 100 µM and a TGI (KM20L2 colon) greater than 100 µM. For the same compound, the TGI (LOX IMVI melanoma) was greater than 100 µM, the TGI (LXFL 529 NSCLC) was greater than 100 µM and the TGI (M14 melanoma) was greater than 100 µM. The TGI (M19-MEL melanoma) was greater than 100 µM, the TGI (MALME-3M melanoma) was greater than 100 µM and the TGI (MOLT-4 leukemia) was greater than 100 µM. The TGI (NCI-H226 lung) was greater than 100 µM, the TGI (NCI-H23 lung) was greater than 100 µM and the TGI (NCI-H460 lung) was greater than 100 µM. It also gave a TGI (NCI-H522 lung) greater than 100 µM, a TGI (OVCAR-3 ovarian) greater than 100 µM and a TGI (OVCAR-4 ovarian) greater than 100 µM. It also gave a TGI (OVCAR-5 ovarian) greater than 100 µM, a TGI (OVCAR-8 ovarian) greater than 100 µM and a TGI (RPMI-8226 leukemia) greater than 100 µM. For the same compound, the TGI (RXF 393 renal) was greater than 100 µM, the TGI (SF-268 CNS) was greater than 100 µM and the TGI (SF-295 CNS) was greater than 100 µM. The TGI (SF-539 CNS) was greater than 100 µM, the TGI (SK-MEL-2 melanoma) was greater than 100 µM and the TGI (SK-MEL-28 melanoma) was greater than 100 µM. For the same compound, the TGI (SK-MEL-5 melanoma) was greater than 100 µM, the TGI (SK-OV-3 ovarian) was greater than 100 µM and the TGI (SN12C renal) was greater than 100 µM. It also gave a TGI (SNB-19 CNS) greater than 100 µM, a TGI (SNB-78 CNS) greater than 100 µM and a TGI (SR leukemia) greater than 100 µM. For the same compound, the TGI (SW-620 colon) was greater than 100 µM, the TGI (U251 CNS) was greater than 100 µM and the TGI (UACC-257 melanoma) was greater than 100 µM. It also gave a TGI (UACC-62 melanoma) greater than 100 µM and a TGI (UO-31 renal) greater than 100 µM.

In the case of `CC1(C)CCCC2CC2CCC(C)(C)C1=O` (centres undefined), the TGI (786-0 renal) is reported as 86.6 µM, the TGI (A498 renal) is reported as greater than 100 µM and the TGI (A549 NSCLC) is reported as greater than 100 µM. For the same compound, the TGI (ACHN renal) was greater than 100 µM, the TGI (BT-549 breast) was greater than 100 µM and the TGI (CAKI-1 renal) was greater than 100 µM. It also gave a TGI (CCRF-CEM leukemia) of 38.4 µM, a TGI (COLO 205 colon) of 39 µM and a TGI (DU-145 prostate) greater than 100 µM. The TGI (EKVX NSCLC) was greater than 100 µM, the TGI (HCC-2998 colon) was 21.7 µM and the TGI (HCT-116 colon) was greater than 100 µM. The TGI (HCT-15 colon) was greater than 100 µM, the TGI (HL-60(TB) leukemia) was 41.2 µM and the TGI (HOP-62 NSCLC) was greater than 100 µM. For the same compound, the TGI (HOP-92 NSCLC) was greater than 100 µM, the TGI (HS 578T breast) was greater than 100 µM and the TGI (HT29 colon) was greater than 100 µM. The TGI (IGROV1 ovarian) was greater than 100 µM, the TGI (K-562 leukemia) was 40.1 µM and the TGI (KM12 colon) was greater than 100 µM. For the same compound, the TGI (LOX IMVI melanoma) was greater than 100 µM, the TGI (M14 melanoma) was greater than 100 µM and the TGI (MALME-3M melanoma) was greater than 100 µM. The TGI (MCF7 breast) was 75.8 µM, the TGI (MDA-MB-231 breast) was greater than 100 µM and the TGI (MDA-MB-435) was greater than 100 µM. It also gave a TGI (MDA-N) greater than 100 µM, a TGI (MOLT-4 leukemia) of 83.1 µM and a TGI (NCI-H226 lung) greater than 100 µM. The TGI (NCI-H23 lung) was greater than 100 µM, the TGI (NCI-H460 lung) was greater than 100 µM and the TGI (NCI-H522 lung) was greater than 100 µM. For the same compound, the TGI (NCI/ADR-RES ovarian) was greater than 100 µM, the TGI (OVCAR-3 ovarian) was 82.7 µM and the TGI (OVCAR-4 ovarian) was greater than 100 µM. It also gave a TGI (OVCAR-5 ovarian) greater than 100 µM, a TGI (OVCAR-8 ovarian) greater than 100 µM and a TGI (PC-3 prostate) greater than 100 µM. For the same compound, the TGI (RPMI-8226 leukemia) was 68.1 µM, the TGI (RXF 393 renal) was 87.7 µM and the TGI (SF-268 CNS) was greater than 100 µM. It also gave a TGI (SF-295 CNS) greater than 100 µM, a TGI (SF-539 CNS) greater than 100 µM and a TGI (SK-MEL-2 melanoma) greater than 100 µM. It also gave a TGI (SK-MEL-28 melanoma) greater than 100 µM, a TGI (SK-MEL-5 melanoma) greater than 100 µM and a TGI (SK-OV-3 ovarian) greater than 100 µM. It also gave a TGI (SN12C renal) greater than 100 µM, a TGI (SNB-19 CNS) greater than 100 µM and a TGI (SNB-75 CNS) greater than 100 µM. It also gave a TGI (SR leukemia) of 45.6 µM, a TGI (SW-620 colon) greater than 100 µM and a TGI (T-47D breast) greater than 100 µM. For the same compound, the TGI (TK-10 renal) was greater than 100 µM, the TGI (U251 CNS) was 37.3 µM and the TGI (UACC-257 melanoma) was greater than 100 µM. It also gave a TGI (UACC-62 melanoma) greater than 100 µM and a TGI (UO-31 renal) greater than 100 µM.
